Key:
Assay type in all cases: cell-based
Saccharomyces cerevisae [1] = assay: Quantitative cell density test, OD 600 nm, 96 well microplates, yeast; conditions: for reduction in cell density vs controls (OD 600 nm): S. cerevisae, 24 hours, 10 μL of 1 mg/mL (˜4 μM) compound in DMSO added to 200 μL culture, ANOVA p<0.000
Description: (§1) The results of the Oxford disc assay using the isolated compounds confirmed these observations for both S. cerevisae and Microbotryum violaceum. A quantitative test protocol based on cell density using OD measurements at 600 nm in 96 well microplates was employed.
(§2) Disc diffusion assays with the extracts were employed for preliminary antifungal testing using Saccharomyces cerevisae for all strains (Sumarah et al., 2008b). […] The individual compounds were further tested using these two fungi in 96 well microplates where 10 μL of 1 mg/mL (˜4 μM) of each compound in DMSO was added to 200 μL of the above macerated cultures. The plates were incubated at room temperature with constant shaking and were measured at 600 nm. The antifungal compound nystatin was used as the positive control for all experiments.

Microbotryum violaceum [2] = assay: Quantitative cell density test, OD 600 nm, 96 well microplates, rust; conditions: M. violaceum, 48 hours; 10 μL of 1 mg/mL (˜4 μM) compound in DMSO added to 200 μL culture; ANOVA p<0.000
Description: as §1, §2

Saccharomyces cerevisae [3] = assay: Disc diffusion (Oxford) antifungal assay, yeast; conditions: isolated compounds
Protocol: (§3) The term “toxicity” as used herein with respect to the effect of a toxin compound or toxigenic endophyte strain on a pest means inhibited or reduced growth and/or pest death in the presence of the toxin compound or toxigenic endophyte compared to a control. For example, where toxicity is assessed using a disc diffusion assay, which uses a disc comprising a compound, which is placed on a microbial lawn, the compound is a toxic compound if it results in a zone of clearing around the disc.
(§4) From these strains the new aliphatic polyketide compound 1 and three related sesquiterpenes (IIa), (IIb) and (III) were isolated and characterized (see FIG. 1). Compound (III) is reported for the first time as a natural product and the E/Z conformational isomers (IIa) and (IIb) are reported as new structures (see FIG. 1). Additionally, the three known macrolides; pyrenophorol (IV), dihydropyrenophorin (V) and pyrenophorin (VI) were isolated and identified. Their structures were elucidated by spectroscopic analyses including 2D NMR, HRMS and by comparison to literature data where available.
as §1, §2

Microbotryum violaceum [4] = assay: Disc diffusion (Oxford) antifungal assay, rust; conditions: isolated compounds, rust grown on MYP
Protocol: as §3, §4, §1, §2

CC1(C)CCCC(C)(c2ccc(CO)cc2O)O1 (stereo not shown) [Compound (III), 5-(hydroxymethyl)-2-(2′,6′,6′-trimethyltetrahydro-2H-pyran-2-yl)phenol]
reduction in cell density vs controls (OD 600 nm) (Saccharomyces cerevisae [1]): Statistically-significant reductions in cell density | rank of antifungal effect among compounds 1, (III) and (IV) (Saccharomyces cerevisae [1]; based on results of the response at 24 h): most antifungal | reduction in cell density vs controls (OD 600 nm) (Microbotryum violaceum [2]): Statistically-significant reductions in cell density | antifungal activity against Saccharomyces cerevisae (Saccharomyces cerevisae [3]): antifungal activity | antifungal activity against Microbotryum violaceum (Microbotryum violaceum [4]): antifungal activity | antifungal activity against Microbotryum violaceum (Microbotryum violaceum [4]; listed as 2): antifungal activity

C[C@@H]1CC[C@H](O)/C=C/C(=O)O[C@H](C)CC[C@H](O)/C=C/C(=O)O1 [Compound (IV), pyrenophorol]
reduction in cell density vs controls (OD 600 nm) (Saccharomyces cerevisae [1]): Statistically-significant reductions in cell density | reduction in cell density vs controls (OD 600 nm) (Microbotryum violaceum [2]): Statistically-significant reductions in cell density | antifungal activity against Saccharomyces cerevisae (Saccharomyces cerevisae [3]): antifungal activity | antifungal activity against Microbotryum violaceum (Microbotryum violaceum [4]): antifungal activity | antifungal activity against Microbotryum violaceum (Microbotryum violaceum [4]; listed as 5): antifungal activity

COC(=O)/C=C\C=C(\C=O)C(OC(C)=O)C(C)=O (stereo not shown) [Compound 1, (2Z,4E)-methyl-6-acetoxy-5-formyl-7-oxo-octa-2,4-dienoate]
reduction in cell density vs controls (OD 600 nm) (Saccharomyces cerevisae [1]): Statistically-significant reductions in cell density | reduction in cell density vs controls (OD 600 nm) (Microbotryum violaceum [2]): Statistically-significant reductions in cell density | antifungal activity against Saccharomyces cerevisae (Saccharomyces cerevisae [3]): antifungal activity | antifungal activity against Microbotryum violaceum (Microbotryum violaceum [4]): antifungal activity | antifungal activity against Microbotryum violaceum (Microbotryum violaceum [4]; listed as (2E,4Z)-methyl-6-acetoxy-5-acetyl-7-oxohepta-2,4-dienoate): antifungal activity
